Patent publication US4064277A, “Method for processing soybeans” (Kikkoman Shoyu Co., Ltd., priority 1974, dated 1977)
Blank lines part the entries; values can stand above or below the compound they belong to.

How the values were obtained:
β-glycosidase [1] = assay: minimum effective amount of competitive inhibitor, operation of Example 1 repeated; settings: based on the weight of the whole soybeans
Experimental: 40 Grams of whole soybeans were swelled by soaking at room temperature for 8 hours in 80 ml. of an aqueous solution containing glucono-1,5-lactone as a competitive inhibitor for β-glycosidase in such proportion, based on the weight of the soybeans, as shown in Table 1. In this case, two thirds times the amount of said aqueous solution was incorporated into the soybeans. To the soaked soybeans was added 320 ml. of hot water (at above 95° C.), and the resulting mixture was treated by means of a homogenizer to prepare a ground suspension, which was then filtered by use of a 100-mesh sieve to obtain an extract. The temperature at the time of the homogenization treatment effected with addition of said hot water was above 90° C., and, by said treatment, β-glycosidase contained in the soybeans was completely inactivated, and the mixture was freed from beany odor (grassy smell). The thus obtained extract (soybean milk) was subjected to organoleptic test by drinking to obtain such results as shown in Table 1. The aforesaid operation was repeated, except that the glucono-1,5-lactone was replaced by each of the competitive inhibitors shown in Table 2, and the minimum effective amount of the competitive inhibitor based on the weight of the whole soybeans was calculated. The same operation as in Example 1 was effected, except that the glucono-1,5-lactone was replaced by each of the competitive inhibitors set forth in Table 3, and the minimum effective amount of the competitive inhibitor based on the weight of the whole soybeans was calculated.

β-glycosidase [2] = assay: β-glycosidase inhibitory ratio in soaked whole soybeans (p-nitrophenyl-β-D-glucopyranoside substrate, 420 mμ); assay type: biochemical; settings: for β-Glycosidase inhibitory ratio (%): soaking 8 hours at room temperature
Experimental: 40 Grams of whole soybeans were swelled by soaking at room temperature for 8 hours in 80 ml. of an aqueous solution containing glucono-1,5-lactone as a competitive inhibitor for β-glycosidase in such proportion, based on the weight of the soybeans, as shown in Table 1. In this case, two thirds times the amount of said aqueous solution was incorporated into the soybeans. To the soaked soybeans was added 320 ml. of hot water (at above 95° C.), and the resulting mixture was treated by means of a homogenizer to prepare a ground suspension, which was then filtered by use of a 100-mesh sieve to obtain an extract. The temperature at the time of the homogenization treatment effected with addition of said hot water was above 90° C., and, by said treatment, β-glycosidase contained in the soybeans was completely inactivated, and the mixture was freed from beany odor (grassy smell).
^2) The β-glycosidase inhibitory ratio (%) was measured in the
following manner: At the time of soybean soaking, in the above-mentioned
operation, 0.1 weight % based on the weight of the soybeans of
p-nitrophenyl-β-D-glucopyranoside was absorbed together with the
soaking solution into the soybeans. After lapse of the same soaking perio
as mentioned previously, the soybeans were boiled in water for 5 minutes.
Subsequently, the soybeans were soaked in a 2.5M sodium carbonate solutio
to elute p-nitrophenol which had been liberated in the soybeans due to th
action of β-glycosidase. The developed yellow color was determined b
using electrophotometer (420 mμ), and the ratio (%) of
β-glycosidase activity remaining in each sample was subtracted from
100%, assuming as 100% the β-glycosidase activity in the sample of
Run No. 1, which had not been incorporated with glucono-1,5-lactone, to
obtain a value. This value was decided as the inhibitory ratio (%).

SMILES: C[C@@H]1OC(=O)[C@@H](O)[C@H](O)[C@@H]1O [Fucono-1,5-lactone, fucono-1,5-lactone]
Minimum effective amount (weight %) (β-glycosidase [1]): 0.02 weight %

SMILES: O=C1O[C@H](CO)[C@@H](O)[C@H](O)[C@H]1O [Glucono-1,5-lactone, glucono-1,5-lactone]
β-Glycosidase inhibitory ratio (%) (β-glycosidase [2]; Run No. 2: amount used 0.0015 weight %, incorporated into soybeans 0.0010 weight %): 13% | β-Glycosidase inhibitory ratio (%) (β-glycosidase [2]; Run No. 3: amount used 0.015 weight %, incorporated into soybeans 0.010 weight %): 49% | β-Glycosidase inhibitory ratio (%) (β-glycosidase [2]; Run No. 4: amount used 0.15 weight %, incorporated into soybeans 0.10 weight %): 73% | β-Glycosidase inhibitory ratio (%) (β-glycosidase [2]; Run No. 5: amount used 1.5 weight %, incorporated into soybeans 1.0 weight %): 90% | activity of β-glycosidase in the soybeans (β-glycosidase [2]; whole soybeans impregnated with 0.10 weight % or more, as aqueous solution): greatly inhibited

SMILES: O=C1O[C@H](CO)[C@H](O)[C@H](O)[C@H]1O [Galactono-1,5-lactone, galactono-1,5-lactone]
Minimum effective amount (weight %) (β-glycosidase [1]): 20 weight %

Further lines, results first:

Minimum effective amount (weight %) (β-glycosidase [1]): 0.01 weight %
SMILES: OC[C@H]1NC(O)[C@H](O)[C@@H](O)[C@@H]1O (stereo partly drawn) [Nojirimycin]

Minimum effective amount (weight %) (β-glycosidase [1]): 40 weight %
SMILES: OC[C@H]1OC(O)[C@H](O)[C@@H](O)[C@@H]1O (stereo partly drawn) [Glucose, glucose]
